According to patent US4873088A, “Liposome drug delivery method and composition” (priority 1987, dated 1989):

Assays:
[1] = both compounds in the free form; cited from earlier work
[2] = test system: IL-2; experiment: IL-2 activity of adherent PEC culture supernatants (IL-2 dependent CTCL-1 line); assay type: cell-based
Experimental: The purpose is to determine if the enhanced macrophage tumoricidal activity and NK activity detailed above correlates with increases in either IL-1 or IL-2.
(§1) The cells were cultured for 18 hours with the concentrations of LPS indicated below in Table 4.
The procedure used for assaying IL-2 has been described (Ehrke, 1986). Briefly, using a long term, IL-2 dependent cytolytic T cell line (CTCL-1), 10^4 cells in 0.1 ml were added to 0.1 ml volumes of conditioned media from adherent PEC cultures. The cells were incubated for 24 h and pulsed with [^3 H]Thd ([…]) 4 h before harvest. Results were expressed as the arithmetic mean of cpm dThd uptake ±S.D. A semipurified, rat IL-2 preparation was used as a positive control.

[3] = Acute and chronic toxicity (LD50) after single i.v. dose in healthy mice; details: mouse, in vivo, iv
Experimental: The toxicity of the three ADM preparations in Table 1 above was tested against healthy DMA 2J mice.
The data are expressed in terms of LD50, i.e. the dosage (in mg drug per kilogram of animal body weight) which produces death in half the animals receiving the drug. […] The number of mice available for determination of chronic toxicity (survival of acute toxicity) varied from between about 2 and 10 mice per group.

[4] = PEC ADM content by fluorescence after i.p. administration; assay type: in vivo, mice
Experimental: ADM was extracted from 10^6 PEC/sample by sonication in 36.5% HCl: absolute ethanol (1:11) in an ice bath for 5 min. This sonicated lysate was centrifuged (12,150×g) for 20 min at 4-6 C. The supernatant was measured for fluorescence at 468 nm excitation and 585 nm emission using a Perkin-Elmer (Model 650-10S) spectrofluorometer.

[5] = test system: YAC-1 lymphoma cells; experiment: PEC NK activity with and without anti-Asialo GM1 antibody + complement; assay type: cell-based, mice; details: PEC 7 days after treatment; for NK activity, specific 51Cr release, Untreated: no antibody
Experimental: In order to verify that the effector cells in the PEC population that were active against YAC-1 cells had.NK properties, PECs were treated with anti-Asialo GMI antiserum and complement in vitro prior to the 4 hr toxicity assay for PECs.
Anti-Asialo GM1 antibody was added directly to PEC in the microwells at a final dilution of 1:20. After 30 min on ice the cultured effector cells were spun down, supernatant removed and the cells resuspended. Low toxicity rabbit complement was added (final dilution 1:20) and the cultures incubated for 45 min. After 3 washings, the PECs (5×10^5) were cultures with 10^4 radio-labeled YAC-1 cells, and radioactivity released was assayed after 4 hours.

[6] = test system: YAC-1 lymphoma cells; experiment: Splenic NK activity against YAC-1 cells (51Cr release); assay type: cell-based, mice
Experimental: Fresh spleen cells were added to ^51 Cr labeled YAC-1 cells at different effector to target cell ratios.

[7] = test system: IL-1; experiment: IL-1 like activity of adherent PEC culture supernatants (thymocyte comitogenic assay); assay type: cell-based, C3H/Hej mice
Experimental: as §1
A standard thymocyte comitogenic assay for IL-1 was used to test 18 h adherent PEC culture supernatants for IL1 like activity. Thymopytes (5×10^5) from C3H/Hej mice were added in 0.1 ml/well to flat bottom, 96 well plates. An equal volume of adherent PEC culture supernatant was added for a final volume of 0.2 ml. To facilitate a proliferative response, the media was supplemented with PHA ([…]) and 2-mercaptoethanol ([…]). Cultures were incubated for 72 h. Four hours before harvesting, the cultures were pulsed with [^3 H]dThd (New England Nuclear, 2 Ci/mole; […]).
Cells were harvested on glass fiber filters with an Otto Hiller cell harvester. The radioactivity was measured by scintillation counting using a Beckmann counter (Model LS 7000). Thymidine uptake by the thymocytes was expressed as mean cpm±S.D.

[8] = test system: L1210 leukemia cells; experiment: Acute therapeutic effect (mean survival time) in mice injected i.p. with 10^6 L1210 leukemia cells, i.v. ADM; assay type: in vivo, DBA 2J mice; details: one day after L1210
Experimental: The day of death of the animals was recorded, and the mean survival time of each group was calculated. Each group contained from between 6 and 10 mice.

Cc1c(C)c2c(c(C)c1O)CCC(C)(CCCC(C)CCCC(C)CCCC(C)C)O2 (stereo not drawn) [alpha-tocopherol (vitamin E), alpha-tocopherol]
cardiotoxicity of ADM (in words) [1]: reduce the cardiotoxicity of ADM in animals

COc1cccc2c1C(=O)c1c(O)c3c(c(O)c1C2=O)C[C@@](O)(C(=O)CO)C[C@@H]3O[C@H]1C[C@H](N)[C@H](O)[C@H](C)O1 [free ADM, doxorubicin]
IL-2 activity (dThd uptake) ([2]; LPS 0 ng/ml): 285 ± 86 cpm | IL-2 activity (dThd uptake) ([2]; LPS 0.001-1000 ng/ml): 286 ± 74 cpm | IL-2 activity (in words) ([2]; with or without LPS activation): about background | LD50 at 2880 h ([3]; death between 50 and 120 days, read-out: Mean LD50 ± S.D., chronic): 12 ± 5 mg/kg | LD50 at 336 h ([3]; death within 14 days, read-out: Mean LD50 ± S.D., acute): 20 ± 5 mg/kg | ADM Equivalents in PEC ([4]; Day 4, i.p.): 4.2 ± 0.5 ng ADM/10^6 PECs | ADM Equivalents in PEC ([4]; Day 7, i.p.): 1.4 ± 0.4 ng ADM/10^6 PECs | ADM Equivalents in PEC ([4]; Day 11, i.p.): 0.2 ± 0.2 ng ADM/10^6 PECs | NK activity, specific 51Cr release, Asialo GM1 Antibody + Complement ([5]; Exp. No. 1): 3.4 ± 0.9% | NK activity, specific 51Cr release, Untreated ([5]; Exp. No. 1): 16.9 ± 2.6% | NK activity, specific 51Cr release, Asialo GM1 Antibody + Complement ([5]; Exp. No. 2): 0.2 ± 0.8% | NK activity, specific 51Cr release, Untreated ([5]; Exp. No. 2): 18.9 ± 1.4% | duration of suppression of splenic NK (in words) [6]: transient | splenic NK suppression (in words) ([6]; 7 or 11 days before sacrifice): suppression was not observed | splenic NK activity (in words) ([6]; 4 days following treatment): reduced | IL-1 activity (thymidine uptake by thymocytes) ([7]; LPS 0 ng/ml): 9142 ± 1179 cpm | IL-1 activity (thymidine uptake by thymocytes) ([7]; LPS 0.001 ng/ml): 9693 ± 230 cpm | IL-1 activity (thymidine uptake by thymocytes) ([7]; LPS 0.1 ng/ml): 11588 ± 953 cpm | dependence of IL-1-like activity on LPS (in words) ([7]; LPS 0.001 to 1,000 ng/ml): no significant increase in this activity from ADM PEC was observed with LPS exposure | Mean Survival Time ± S.D. ([8]; 10 mg/kg ADM): 18.4 ± 1.8 days | Mean Survival Time ± S.D. ([8]; 20 mg/kg ADM): 12.2 ± 1.6 days
